Patent US20250320213A1, “Nitrogen-Containing Heterocyclic Compounds” (Pfizer Inc., priority 2024, published 2025)
Read-outs that look alike come from different tables or passages of the source.

Experiments:
STAT6 = biological target: T1, STAT6 (Homo sapiens, UniProt P42226); test: STAT6 Reporter Luciferase Assay (IL-13 stimulated HaCaT keratinocyte NanoLuc reporter cells); type: cell-based; conditions: read-out: Reporter EC50
T1 construct: stably transfected HaCaT keratinocyte cell line, which expresses NanoLuc luciferase reporter gene under the transcriptional control of the STAT6 responsive promoter; endogenous in cells; host or cells: HaCaT keratinocyte reporter cell line (stably transfected with a NanoLuc reporter)
T1 sequence (P42226 1-847): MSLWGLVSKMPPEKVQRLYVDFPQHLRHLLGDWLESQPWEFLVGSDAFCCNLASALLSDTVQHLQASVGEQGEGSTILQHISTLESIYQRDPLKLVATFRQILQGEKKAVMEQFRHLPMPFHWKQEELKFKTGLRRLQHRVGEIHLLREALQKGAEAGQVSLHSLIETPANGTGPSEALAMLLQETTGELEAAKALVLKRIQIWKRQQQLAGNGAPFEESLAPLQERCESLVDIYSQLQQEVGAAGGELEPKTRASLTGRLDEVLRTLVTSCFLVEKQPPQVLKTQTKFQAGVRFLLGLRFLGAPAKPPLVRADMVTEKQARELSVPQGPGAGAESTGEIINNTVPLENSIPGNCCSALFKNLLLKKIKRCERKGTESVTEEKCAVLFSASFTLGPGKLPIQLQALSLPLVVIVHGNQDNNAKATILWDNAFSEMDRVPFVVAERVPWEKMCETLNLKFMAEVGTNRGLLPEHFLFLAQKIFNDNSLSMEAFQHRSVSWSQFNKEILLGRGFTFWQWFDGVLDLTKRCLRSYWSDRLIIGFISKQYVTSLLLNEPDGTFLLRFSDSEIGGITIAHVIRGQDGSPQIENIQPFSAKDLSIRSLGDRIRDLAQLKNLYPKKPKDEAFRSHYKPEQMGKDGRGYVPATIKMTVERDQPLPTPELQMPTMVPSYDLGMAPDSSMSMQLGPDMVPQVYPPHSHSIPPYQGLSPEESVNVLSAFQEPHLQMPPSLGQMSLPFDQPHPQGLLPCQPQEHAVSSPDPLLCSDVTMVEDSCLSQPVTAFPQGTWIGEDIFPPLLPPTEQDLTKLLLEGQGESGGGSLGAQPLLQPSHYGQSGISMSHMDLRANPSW
Procedure, shortened: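 HaCaT cells stably carrying a NanoLuc reporter driven by the STAT6-responsive IL-13Ra2 promoter were preincubated with compounds for 2 h at 37 °C in 2% FBS medium. Cells were then stimulated with 0.12 nM IL-13 for 4 h, and luminescence was read after Nano-Glo substrate. Compounds ran as 11-point 4-fold dilutions in duplicate.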

[1] = tested on: CCL17 secretion in peripheral human whole blood; test: Human Whole Blood (HWB) CCL17 TR-FRET Assay (IL-13 stimulated CCL17 secretion); type: cell-based
Procedure, shortened: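 TR-FRET sandwich immunoassay (665/615 nm ratio) read CCL17 in serum from heparinized whole blood after 16 h RT detection. Blood was exposed to compound for 2 h at 37 °C, then to 10 ng/mL IL-13 (final) for 48 h. IC50 from 11-point, 3-fold titrations in duplicate.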

[2] = STAT6 NanoLuc luciferase reporter, IL-13 stimulated HaCaT keratinocyte cells
[3] = Homo sapiens, 48 h, inhibition of CCL17 secretion in human whole blood, 10 ng/mL IL13, 48 hours
[4] = IL-13 stimulated HaCaT STAT6 NanoLuc reporter cells
[5] = Homo sapiens, 48 h, human whole blood, 10 ng/mL IL13, 48 hours
[6] = Homo sapiens, 48 h, human whole blood, IL-13 stimulated
[7] = human whole blood, IL-13 stimulated, 48 hours

In the case of COCCNC(=O)Nc1ccc(CNC(=O)c2nn(C(C)C)c3c2CN(c2ccc(C(=O)N(C)C)cn2)CC3)cc1 [Example 178, 5-(5-(dimethylcarbamoyl)pyridin-2-yl)-1-isopropyl-N-(4-(3-(2-methoxyethyl)ureido)benzyl)-4,5,6,7-tetrahydro-1H-pyrazolo[4,3-c]pyridine-3-carboxamide], the EC50 (STAT6; [2]) is reported as 7 nM and the IC50 [1, 3] is reported as 45 nM.

In the case of CC(C)n1nc(C(=O)NCc2ccc(NC(=O)N3CCN(C)CC3)c(F)c2)c2c1[C@@H](C)CN(c1ccc(C(=O)N(C)C)cc1)C2 [Example 580, (S)-5-(4-(dimethylcarbamoyl)phenyl)-N-(3-fluoro-4-(4-methylpiperazine-1-carboxamido)benzyl)-1-isopropyl-7-methyl-4,5,6,7-tetrahydro-1H-pyrazolo[4,3-c]pyridine-3-carboxamide], the EC50 (STAT6; [4]) is reported as 1 nM and the IC50 [1, 5] is reported as 11 nM.

In the case of COc1ccnc2c1CCN(C(=O)c1ccc(N3CCc4c(c(C(=O)NCc5ccc(NC(=O)N(C)C)cc5)nn4C(C)C)C3)nc1)C2 [Example 407, N-(4-(3,3-dimethylureido)benzyl)-1-isopropyl-5-(5-(4-methoxy-5,6,7,8-tetrahydro-1,7-naphthyridine-7-carbonyl)pyridin-2-yl)-4,5,6,7-tetrahydro-1H-pyrazolo[4,3-c]pyridine-3-carboxamide], the EC50 (STAT6; [4]) is reported as 10 nM and the IC50 [1, 6] is reported as 100 nM.

CC(C)n1nc(C(=O)NCc2ccc(NC(=O)N(C)C)cc2)c2c1CCN(c1ccc(C3CCCCO3)cn1)C2 (single isomer, unassigned) [Example 394, rel-(R or S)-N-(4-(3,3-dimethylureido)benzyl)-1-isopropyl-5-(5-(tetrahydro-2H-pyran-2-yl)pyridin-2-yl)-4,5,6,7-tetrahydro-1H-pyrazolo[4,3-c]pyridine-3-carboxamide] was tested, and the EC50 (STAT6; [4]) was greater than 7660 nM and the IC50 [1, 7] was greater than 30000 nM.

Work on C[C@H]1CN(c2ncc(C(=O)N(C)C)cn2)Cc2c(C(=O)NCc3ccc(NC(=O)N(C)C)cc3)nn(CC3CC3)c21 [Example 120, (S)-1-(cyclopropylmethyl)-5-(5-(dimethylcarbamoyl)pyrimidin-2-yl)-N-(4-(3,3-dimethylureido)benzyl)-7-methyl-4,5,6,7-tetrahydro-1H-pyrazolo[4,3-c]pyridine-3-carboxamide] yielded an EC50 (STAT6; [2]) of 1 nM and an IC50 [1, 3] of 4 nM.

CN(C)C(=O)Nc1ccc(CNC(=O)c2nn(C)c3c2[C@H]2CCC[C@@H](C3)N2c2ccc(C(=O)N(C)C)cn2)cc1 (single isomer, unassigned) [Example 275] was tested, and the EC50 (STAT6; [4]) was 7 nM and the IC50 [1, 7] was 30 nM.

With CC(C)n1nc(C(=O)NCc2ccc(NC(=O)N(C)[C@H]3CCOC3)cc2)c2c1CCN(c1ccc(C(=O)N(C)C)cn1)C2 [Example 187, (S)-5-(5-(dimethylcarbamoyl)pyridin-2-yl)-1-isopropyl-N-(4-(3-methyl-3-(tetrahydrofuran-3-yl)ureido)benzyl)-4,5,6,7-tetrahydro-1H-pyrazolo[4,3-c]pyridine-3-carboxamide] the EC50 (STAT6; [4]) was 15 nM and the IC50 [1, 6] was 41 nM.

CC(C)n1nc(C(=O)NCc2ccc(NC(=O)N3CCC(C4CCNCC4)CC3)cc2)c2c1[C@@H](C)CN(c1ccc(C(=O)N(C)C)cc1)C2 [Example 620, (S)-N-(4-([4,4′-bipiperidine]-1-carboxamido)benzyl)-5-(4-(dimethylcarbamoyl)phenyl)-1-isopropyl-7-methyl-4,5,6,7-tetrahydro-1H-pyrazolo[4,3-c]pyridine-3-carboxamide] gave an EC50 (STAT6; [4]) of 1 nM and an IC50 [1, 5] of 8 nM.

Work on CC(C)n1nc(C(=O)NCc2ccc(NC(=O)N(C)C)cc2)c2c1CCN(c1ccc(N3C[C@H](C)CC3=O)cn1)C2 [Example 67, (R)-N-(4-(3,3-dimethylureido)benzyl)-1-isopropyl-5-(5-(4-methyl-2-oxopyrrolidin-1-yl)pyridin-2-yl)-4,5,6,7-tetrahydro-1H-pyrazolo[4,3-c]pyridine-3-carboxamide] yielded an EC50 (STAT6; [2]) of 64 nM and an IC50 [1, 3] of 5020 nM.

CCC1Cc2c(c(C(=O)NCc3ccc(NC(=O)N(C)C)cc3)nn2C)CN1c1ccc(C(=O)N(C)C)cn1 (racemic) [Example 260, rac-(R)-5-(5-(dimethylcarbamoyl)pyridin-2-yl)-N-(4-(3,3-dimethylureido)benzyl)-6-ethyl-1-methyl-4,5,6,7-tetrahydro-1H-pyrazolo[4,3-c]pyridine-3-carboxamide] showed an EC50 (STAT6; [4]) of 10 nM and an IC50 [1, 6] of 64 nM.

CC(C)n1nc(C(=O)NCc2ccc(NC(=O)N3CCC4(CC3)CCN4C)c(F)c2)c2c1[C@@H](C)CN(c1ccc(C(=O)N(C)C)cn1)C2 [Example 602, (S)-5-(5-(dimethylcarbamoyl)pyridin-2-yl)-N-(3-fluoro-4-(1-methyl-1,7-diazaspiro[3.5]nonane-7-carboxamido)benzyl)-1-isopropyl-7-methyl-4,5,6,7-tetrahydro-1H-pyrazolo[4,3-c]pyridine-3-carboxamide] gave an EC50 (STAT6; [4]) of 1 nM and an IC50 [1, 5] of 14 nM.

Compound CC(C)n1nc(C(=O)NCc2ccc(NC(=O)N(C)C)cc2)c2c1C1(CC1)CN(c1ccc(C(=O)N(C)C)cn1)C2 [Example 266, 5′-(5-(dimethylcarbamoyl)pyridin-2-yl)-N-(4-(3,3-dimethylureido)benzyl)-1′-isopropyl-1′,4′,5′,6′-tetrahydrospiro[cyclopropane-1,7′-pyrazolo[4,3-c]pyridine]-3′-carboxamide] has an EC50 (STAT6; [4]) of 3 nM and an IC50 [1, 6] of 45 nM.

Work on CN(C)C(=O)Nc1ccc(CNC(=O)c2cnn3c2CN(c2ccc(C(=O)N(C)C)cn2)CC3)cc1 [Example 29, 5-(5-(dimethylcarbamoyl)pyridin-2-yl)-N-(4-(3,3-dimethylureido)benzyl)-4,5,6,7-tetrahydropyrazolo[1,5-a]pyrazine-3-carboxamide] yielded an EC50 (STAT6; [2]) of 2230 nM and an IC50 [1, 3] of 878 nM.

Work on CC(C)n1nc(C(=O)NCc2ccc(C(N)=O)cc2)c2c1[C@@H](C)CN(c1ccc(C(=O)N3Cc4cccnc4C3)cn1)C2 [Example 395, (S)—N-(4-Carbamoylbenzyl)-5-(5-(6,7-dihydro-5H-pyrrolo[3,4-b]pyridine-6-carbonyl)pyridin-2-yl)-1-isopropyl-7-methyl-4,5,6,7-tetrahydro-1H-pyrazolo[4,3-c]pyridine-3-carboxamide] yielded an EC50 (STAT6; [4]) of 1 nM and an IC50 [1, 6] of 6 nM.

With CC(C)n1nc(C(=O)NCc2ccc(NC(=O)N(C)C)cc2)c2c1CCN(c1ccc(C3CCOC3)cn1)C2 (racemic) [Example 345, rac-(R)-N-(4-(3,3-dimethylureido)benzyl)-1-isopropyl-5-(5-(tetrahydrofuran-3-yl)pyridin-2-yl)-4,5,6,7-tetrahydro-1H-pyrazolo[4,3-c]pyridine-3-carboxamide] the EC50 (STAT6; [4]) was greater than 2630 nM and the IC50 [1, 6] was greater than 30000 nM.

With CC(C)n1nc(C(=O)NCc2ccc(NC(=O)N(C)C)cc2)c2c1CCN(c1ccc(C(N)=O)cn1)C2 [Example 137, 5-(5-carbamoylpyridin-2-yl)-N-(4-(3,3-dimethylureido)benzyl)-1-isopropyl-4,5,6,7-tetrahydro-1H-pyrazolo[4,3-c]pyridine-3-carboxamide] the EC50 (STAT6; [2]) was 1860 nM and the IC50 [1, 3] was 9690 nM.

CCC1CN(c2ccc(C(=O)N(C)C)cn2)Cc2c(C(=O)NCc3ccc(NC(=O)N(C)C)cc3)nn(C(C)C)c21 (single isomer, unassigned) [Example 310, rel-(R or S)-5-(5-(dimethylcarbamoyl)pyridin-2-yl)-N-(4-(3,3-dimethylureido)benzyl)-7-ethyl-1-isopropyl-4,5,6,7-tetrahydro-1H-pyrazolo[4,3-c]pyridine-3-carboxamide] showed an EC50 (STAT6; [4]) of 8 nM and an IC50 [1, 7] of 115 nM.

CC(C)n1nc(C(=O)NCc2ccc(NC(=O)N(C)C)cc2)c2c1CCN(c1ccc(C(=O)N3Cc4cccnc4C3)cn1)C2 [Example 33, 5-(5-(6,7-dihydro-5H-pyrrolo[3,4-b]pyridine-6-carbonyl)pyridin-2-yl)-N-(4-(3,3-dimethylureido)benzyl)-1-isopropyl-4,5,6,7-tetrahydro-1H-pyrazolo[4,3-c]pyridine-3-carboxamide] was tested, and the EC50 (STAT6; [2]) was 2 nM and the IC50 [1, 3] was 35 nM.
